What was measured:
S. flexneri Sf9380 [1] = test: Gentamicin protection assay, intracellular growth and spreading to adjacent cell of Sf9380; format: cell-based; conditions: for intracellular growth and spreading to adjacent cell of Sf9380 (bacteria recovered / inoculated): further incubated 290 min, untreated Sf9380 0.12
Protocol: The growth curve of Sf9380 treated with or without potential PhoQ inhibitors at concentration 200 µmol/L were tested. […] The gentamicin protection assay was used as a cellular model to evaluate the inhibitory effect of the four potential PhoQ inhibitors. The bacteria were treated with each of the four potential PhoQ inhibitors in a serial dilution and grown for 8 hours. Next, the bacteria were inoculated and incubated with HeLa cells for 60 min prior to the addition of gentamicin to kill extracellular bacteria. For testing intracellular growth and spreading to adjacent cell, cells were further incubated for 290 min [9]. The results of the assays were expressed as the number of bacteria recovered from gentamicin-treated cells divided by the number of inoculated bacteria added to the cell. After lysates of HeLa cells were plated, the number of CFU that formed on LB agar were counted.
Figure 6 The effects of potential PhoQ inhibitors on virulence of Shigella. […] The bacteria pre-treated with potential PhoQ inhibitor were added to HeLa cells at a multiplicity of infection of 100. Then gentamicin was added to kill extracellular bacteria and cell lysates were plated onto LB plates, and the colonies were counted. The results of the assays were expressed as the number of bacteria recovered from gentamicin-treated cells divided by the number of inoculated bacteria added to the cell. S. flexneri Sf9380 (treated without DMSO), a clinical strain with strong virulence, served as the positive control for the cell invasion assay; E. coli ATCC 25922 (treated without DMSO), an avirulent strain, served as the negative control for the cell invasion assay; bacteria treated with 0.1% DMSO (the solvent of the potential PhoQ inhibitor) also served as a control for the cell invasion assay. Values are means ± standard deviations from 6 independent wells. *p<0.01 vs. Sf9380. (A) The effects of potential PhoQ inhibitors on cell invasion of S. flexneri Sf9380 (B) The effects of potential PhoQ inhibitors on intracellular growth S. flexneri Sf9380. (C) The effects of potential PhoQ inhibitors on cell invasion of S. flexneri 2a 301 phoQ/phoP knock-out mutant.
Bacterial ability to invade HeLa cells was tested with a gentamicin protection assay. HeLa cells were grown in six-well tissue culture plates to semi-confluent monolayers (DMEM, 10% FCS, 5% CO2). Sf9380 or Sf301 ΔphoQ/phoP was treated with potential PhoQ inhibitors for 8 hours in LB at 37°C (final concentrations of 100,50,25,12.5 or 6.25 µmol/L) prior to infection. The bacteria pre-treated with potential PhoQ inhibitor without washing, were added to semi-confluent HeLa cells at a multiplicity of infection of 100, at the same time the bacteria were diluted and plated onto LB agar plates. The CFUs were counted as initial bacterial number before added into HeLa cells. Then the plates were centrifuged at 900×g for 5 minutes. After incubating at 37°C for 60 minutes (For testing intracellular growth and spreading to adjacent cell, cells were further incubated for 290 min [9].), the cells were washed three times with PBS, and gentamicin was added to the medium to a final concentration of 10 µg/ml for 20 minutes at 37°C. After the incubation, the HeLa cells in each well were lysed in 1 ml of PBS containing 0.1% Triton X-100 for 10 minutes at room temperature. The lysates were diluted and plated onto LB agar plates in triplicate. Colonies grown on LB plates were counted. The results of the assays were expressed as the number of bacteria recovered from gentamicin-treated cells divided by the number of inoculated bacteria added to the cell. The cells were inoculated with untreated Sf9380 or Sf301 ΔphoQ/phoP (treated without DMSO) as a positive control and E. coli ATCC 25922, an avirulent strain treated without DMSO, as a negative control. […]

S. flexneri Sf9380 [2] = test: Mouse Sereny test (keratoconjunctivitis); on degree of keratoconjunctival inflammation: key: −: no disease; ±: little keratoconjunctivitis; +: mild keratoconjunctivitis; ++: keratoconjunctivitis with some purulence; +++: fully developed keratoconjunctivitis with great purulence; format: in vivo, BALB/c mice; conditions: for degree of keratoconjunctival inflammation: Sf9380 pre-treated at the concentration (I 1 12.5, I 2 25, I 3 and I 4 100 µmol/L); for keratoconjunctival inflammation (words, abstract): mice inoculated with pre-treated S. flexneri 9380
Excerpt: A Mouse Sereny test was used to investigate the inhibitory effect of the four potential PhoQ inhibitors on the virulence of S. flexneri Sf9380. The mice were infected with 1×10^8 CFUs per eye.
A Mouse Sereny test was used to evaluate the virulence of S. flexneri Sf9380 [48]. A single red colony of Sf9380 on Congo Red agar (Tryptic soy broth provided by Oxfoid Co. with 1.5% agar and 0.01% Congo red), was inoculated into LB and grown with or without potential PhoQ inhibitors (final concentration 100,50,25,12.5 or 6.25 µmol/L) at 37°C for 8 hours with constant shaking. The female BALB/c mice (about 18 g) were infected with 1×10^8 CFUs per eye. The eye of the mouse was inoculated with the bacterium with or without potential PhoQ inhibitor treatment (n = 6 mice in each group). […] In the experiment, mouse eyes inoculated with untreated Sf9380 (treated without DMSO) served as the positive control for keratoconjunctivitis, and mouse eyes inoculated with E. coli ATCC 25922 (treated without DMSO) served as the negative control. Because DMSO is the solvent of the potential PhoQ inhibitor, Sf9380 was treated with the same amount of DMSO (0.1%) as the other groups. The invasiveness of the bacteria was scored: no disease or mild irritation as “−”, + as mild conjunctivitis or late development and/or rapid clearing of symptoms, ++ as keratoconjunctivitis without purulence, and +++ as fully developed keratoconjunctivitis with purulence.

[3] = Sf9380 pre-treated with 12.5 µmol/L, 1×10^8 CFUs per eye
[4] = Sf9380 pre-treated with 100 µmol/L, 1×10^8 CFUs per eye

Compound	degree of keratoconjunctival inflammation (S. flexneri Sf9380 [2]; 24 h, mouse 1)	degree of keratoconjunctival inflammation (S. flexneri Sf9380 [2]; 24 h, mouse 2)	degree of keratoconjunctival inflammation (S. flexneri Sf9380 [2]; 24 h, mouse 3)	degree of keratoconjunctival inflammation (S. flexneri Sf9380 [2]; 24 h, mouse 4)	degree of keratoconjunctival inflammation (S. flexneri Sf9380 [2]; 24 h, mouse 5)	degree of keratoconjunctival inflammation (S. flexneri Sf9380 [2]; 24 h, mouse 6)	degree of keratoconjunctival inflammation (S. flexneri Sf9380 [2]; 48 h, mouse 1)	degree of keratoconjunctival inflammation (S. flexneri Sf9380 [2]; 48 h, mouse 2)	degree of keratoconjunctival inflammation (S. flexneri Sf9380 [2]; 48 h, mouse 3)	degree of keratoconjunctival inflammation (S. flexneri Sf9380 [2]; 48 h, mouse 4)	degree of keratoconjunctival inflammation (S. flexneri Sf9380 [2]; 48 h, mouse 5)	degree of keratoconjunctival inflammation (S. flexneri Sf9380 [2]; 48 h, mouse 6)	degree of keratoconjunctival inflammation (S. flexneri Sf9380 [2]; 72 h, mouse 1)	degree of keratoconjunctival inflammation (S. flexneri Sf9380 [2]; 72 h, mouse 2)	degree of keratoconjunctival inflammation (S. flexneri Sf9380 [2]; 72 h, mouse 3)	degree of keratoconjunctival inflammation (S. flexneri Sf9380 [2]; 72 h, mouse 4)	degree of keratoconjunctival inflammation (S. flexneri Sf9380 [2]; 72 h, mouse 5)	degree of keratoconjunctival inflammation (S. flexneri Sf9380 [2]; 72 h, mouse 6)	degree of keratoconjunctival inflammation (S. flexneri Sf9380 [2]; 96 h, mouse 1)	degree of keratoconjunctival inflammation (S. flexneri Sf9380 [2]; 96 h, mouse 2)	further results
O=C(Nc1ccc(C2(c3cccc(NC(=O)c4cccc5ccccc45)c3)c3ccccc3C(=O)c3ccccc32)cc1)c1ccc2ccccc2c1 [Compound 1]	+	+	+	−	+	+	−	−	+	−	−	−	−	−	−	−	−	−	−	−	times lower than untreated Sf9380, intracellular growth (S. flexneri Sf9380 [1]; 12.5 µmo/L): 1.96 times; intracellular growth and spreading to adjacent cell of Sf9380 (bacteria recovered / inoculated) (S. flexneri Sf9380 [1]; 12.5 µmo/L): 0.061; degree of keratoconjunctival inflammation (S. flexneri Sf9380 [2]; 96 h, mouse 3): −; degree of keratoconjunctival inflammation (S. flexneri Sf9380 [2]; 96 h, mouse 4): −; degree of keratoconjunctival inflammation (S. flexneri Sf9380 [2]; 96 h, mouse 5): −; degree of keratoconjunctival inflammation (S. flexneri Sf9380 [2]; 96 h, mouse 6): −; eye finding at 24 hours after infection (S. flexneri Sf9380 [2]; [3]): slight conjunctival inflammation; time by which keratoconjunctivitis was resolved (S. flexneri Sf9380 [2]; [3]): ≤ 48 h; keratoconjunctival inflammation (words, abstract) (S. flexneri Sf9380 [2]): no inflammation
O=C(O)c1cc(-c2ccc(-c3ccccc3Cl)o2)nc2ccc3ccccc3c12 [Compound 4]	+	+	+	+	+	−	+	−	−	−	+	−	+	−	−	−	−	−	−	−	effect on cell intracellular growth of Sf9380 (S. flexneri Sf9380 [1]; 100 µmo/L): no obvious effect; intracellular growth and spreading to adjacent cell of Sf9380 (bacteria recovered / inoculated) (S. flexneri Sf9380 [1]; 100 µmo/L): 0.12; degree of keratoconjunctival inflammation (S. flexneri Sf9380 [2]; 96 h, mouse 3): −; degree of keratoconjunctival inflammation (S. flexneri Sf9380 [2]; 96 h, mouse 4): −; degree of keratoconjunctival inflammation (S. flexneri Sf9380 [2]; 96 h, mouse 5): −; degree of keratoconjunctival inflammation (S. flexneri Sf9380 [2]; 96 h, mouse 6): −; eye finding at 24 hours post-infection (S. flexneri Sf9380 [2]; [4]): slight conjunctival inflammation; time by which keratoconjunctivitis was resolved (S. flexneri Sf9380 [2]; [4]): ≤ 72 h; keratoconjunctival inflammation (words, abstract) (S. flexneri Sf9380 [2]): no inflammation

— publication PMC3154276, “The Effect of the Potential PhoQ Histidine Kinase Inhibitors on Shigella flexneri Virulence” (PLoS ONE, 2011)
